# Experimental data reported in patent publication US20080318943A1, “Compounds and Uses Thereof - 848” (ASTRAZENECA AB, priority 2007, published 2008).
# Assays:
# GABAA receptor α2β3γ2 = molecular target: T1, GABAA receptor α2β3γ2 (Homo sapiens, UniProt P18507+P47869); assay: Two-electrode voltage-clamp potentiation of GABA EC10 current in Xenopus oocytes, GABAA2; assay type: cell-based; settings: percentage potentiation of GABA EC10 current divided by that of diazepam
# T1 construct: expressed in transfected cells; host or cells: Xenopus laevis oocytes injected with cRNA
# In short: (§1)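 Human GABAA receptors expressed in Xenopus oocytes by cRNA injection (α:β:γ molar ratio ~1:1:10 for α1β2γ2, 1:1:1 for α2β3γ2), recorded 2-10 days later by two-electrode voltage clamp at −60 mV in ND-96, pH 7.5. Modulator preapplied 30 s before GABA at per-oocyte EC10. Peak-current percent potentiation over GABA alone, normalised to diazepam.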
# GABAA receptor α1β2γ2 = molecular target: T2, GABAA receptor α1β2γ2 (Homo sapiens, UniProt P14867+P18507); assay: Two-electrode voltage-clamp potentiation of GABA EC10 current in Xenopus oocytes, GABAA1; assay type: cell-based; settings: percentage potentiation of GABA EC10 current divided by that of diazepam
# T2 construct: expressed in transfected cells; host or cells: Xenopus laevis oocytes injected with cRNA
# In short: as §1
# [1] = molecular target: T3, GABAA2 receptors (α2, β3, γ2 receptor subunits transfected into Sf9 cells) (Homo sapiens, UniProt P18507+P47869); assay: GABAA2 Binding Method ([3H]-Flunitrazepam displacement); settings: [3H]-Flunitrazepam ~2 nM, α2β3γ2 Sf9 membranes, 1 hr at 4° C.
# T3 construct: host or cells: Sf9 cells (membranes)
# In short: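 Membranes from Sf9 cells expressing α2β3γ2 GABAA receptors incubated with ~2 nM (final) [3H]-flunitrazepam and test compound 1 h at 4 °C, then filtered on GF/B plates with cold-buffer washes. Flumazenil-defined controls; percent of control, IC50 and Ki calculated.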
# T2 sequence (P14867 28-456): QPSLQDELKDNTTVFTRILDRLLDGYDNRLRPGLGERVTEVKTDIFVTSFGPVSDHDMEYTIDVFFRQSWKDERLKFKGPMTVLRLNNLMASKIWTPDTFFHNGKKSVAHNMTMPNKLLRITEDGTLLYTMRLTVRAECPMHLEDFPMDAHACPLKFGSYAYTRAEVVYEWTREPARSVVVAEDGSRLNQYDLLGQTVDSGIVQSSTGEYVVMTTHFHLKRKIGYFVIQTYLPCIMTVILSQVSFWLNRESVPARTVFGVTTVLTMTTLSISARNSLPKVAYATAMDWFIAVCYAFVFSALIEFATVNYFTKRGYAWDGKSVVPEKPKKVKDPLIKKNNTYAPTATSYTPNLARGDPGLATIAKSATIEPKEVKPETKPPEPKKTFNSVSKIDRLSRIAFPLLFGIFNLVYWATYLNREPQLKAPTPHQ
# T2 sequence (P47870 25-512 partner limits assumed): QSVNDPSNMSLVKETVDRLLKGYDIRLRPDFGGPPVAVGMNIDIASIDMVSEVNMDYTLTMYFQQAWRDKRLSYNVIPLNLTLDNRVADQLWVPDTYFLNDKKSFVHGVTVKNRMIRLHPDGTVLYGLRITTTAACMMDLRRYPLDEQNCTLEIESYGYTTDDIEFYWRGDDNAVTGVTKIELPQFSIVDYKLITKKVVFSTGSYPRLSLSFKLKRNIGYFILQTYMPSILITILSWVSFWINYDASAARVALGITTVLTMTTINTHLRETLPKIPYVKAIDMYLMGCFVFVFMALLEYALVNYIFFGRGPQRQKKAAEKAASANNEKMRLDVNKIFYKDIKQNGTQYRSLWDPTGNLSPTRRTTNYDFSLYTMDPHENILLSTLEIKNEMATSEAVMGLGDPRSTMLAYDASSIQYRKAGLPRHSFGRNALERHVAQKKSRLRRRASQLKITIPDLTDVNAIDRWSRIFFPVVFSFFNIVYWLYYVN
# T2 sequence (P18507 40-475): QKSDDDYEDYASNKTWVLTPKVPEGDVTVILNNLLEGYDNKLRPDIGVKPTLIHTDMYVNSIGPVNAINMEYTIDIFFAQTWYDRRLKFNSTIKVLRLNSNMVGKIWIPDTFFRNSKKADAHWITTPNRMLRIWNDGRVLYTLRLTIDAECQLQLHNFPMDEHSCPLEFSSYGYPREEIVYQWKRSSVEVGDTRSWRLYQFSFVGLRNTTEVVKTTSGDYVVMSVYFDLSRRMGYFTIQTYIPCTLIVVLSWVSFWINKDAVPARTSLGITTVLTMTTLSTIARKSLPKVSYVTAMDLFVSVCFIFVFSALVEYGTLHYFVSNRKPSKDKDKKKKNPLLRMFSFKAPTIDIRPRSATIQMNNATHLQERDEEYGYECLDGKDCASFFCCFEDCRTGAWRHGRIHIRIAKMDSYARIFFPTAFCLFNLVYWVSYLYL
# T3 sequence (P47869 29-451): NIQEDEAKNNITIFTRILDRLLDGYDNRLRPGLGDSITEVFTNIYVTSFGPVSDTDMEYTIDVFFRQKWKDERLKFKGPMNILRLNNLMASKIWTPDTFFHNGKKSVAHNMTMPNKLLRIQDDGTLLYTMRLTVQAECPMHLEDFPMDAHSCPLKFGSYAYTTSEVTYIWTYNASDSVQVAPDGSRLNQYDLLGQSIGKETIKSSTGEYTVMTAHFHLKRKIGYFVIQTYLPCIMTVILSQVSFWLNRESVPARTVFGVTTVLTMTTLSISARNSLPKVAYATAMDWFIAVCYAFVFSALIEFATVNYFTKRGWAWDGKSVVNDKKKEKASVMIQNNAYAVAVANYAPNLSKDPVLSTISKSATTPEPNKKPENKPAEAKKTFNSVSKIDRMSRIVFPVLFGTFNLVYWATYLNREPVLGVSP
# T3 sequence (P28472 26-473 partner): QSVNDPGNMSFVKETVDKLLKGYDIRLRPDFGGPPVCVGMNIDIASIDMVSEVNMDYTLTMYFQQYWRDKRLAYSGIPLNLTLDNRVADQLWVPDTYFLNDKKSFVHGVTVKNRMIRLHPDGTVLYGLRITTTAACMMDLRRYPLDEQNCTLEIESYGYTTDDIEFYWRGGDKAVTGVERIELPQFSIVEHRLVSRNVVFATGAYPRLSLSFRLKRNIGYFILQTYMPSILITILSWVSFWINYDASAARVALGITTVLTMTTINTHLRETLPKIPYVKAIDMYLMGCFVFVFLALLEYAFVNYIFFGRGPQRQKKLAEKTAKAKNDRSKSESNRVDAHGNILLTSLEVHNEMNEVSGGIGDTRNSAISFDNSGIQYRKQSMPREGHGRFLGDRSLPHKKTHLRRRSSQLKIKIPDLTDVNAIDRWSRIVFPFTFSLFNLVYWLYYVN
# T3 sequence (P18507 40-475): as the sequence (P18507 40-475) above
# T1 sequence (P47869 29-451): as the sequence (P47869 29-451) above
# T1 sequence (P28472 26-473 partner): as the sequence (P28472 26-473 partner) above
# T1 sequence (P18507 40-475): as the sequence (P18507 40-475) above
SMILES,Relative Potentiation for GABAA2 (GABAA receptor α2β3γ2),Relative Potentiation for GABAA1 (GABAA receptor α1β2γ2),Ki [1] [nM]
"CCN1Cc2nc3c(-c4c(F)cc(OC)cc4F)c(F)ccc3c(N)c2C1=O [9-amino-5-(2,6-difluoro-4-methoxyphenyl)-2-ethyl-6-fluoro-2,3-dihydro-1H-pyrrolo[3,4-b]quinolin-1-one]",−0.02,−0.09,4.5
COc1ccc(CN2Cc3nc4c(-c5cc(F)ccc5F)cccc4c(N)c3C2=O)cc1 [Example 2],0.13,0.12,44.3
"CCN1Cc2nc3c(-c4cnccc4C)c(F)ccc3c(N)c2C1=O [9-Amino-2-ethyl-6-fluoro-5-(4-methylpyridin-3-yl)-2,3-dihydropyrrolo[3,4-b]quinolin-1-one]",0.094,−0.0025,2.01
"COc1ccc(CN2Cc3nc4c(-c5cnccc5OC)cccc4c(N)c3C2=O)cc1 [9-amino-2-(4-methoxybenzyl)-5-(4-methoxypyridin-3-yl)-2,3-dihydro-1H-pyrrolo[3,4-b]quinolin-1-one]",0.52,0.32,3.35
"CCCN1Cc2nc3c(-c4cnccc4C)cccc3c(N)c2C1=O [9-amino-5-(4-methylpyridin-3-yl)-2-propyl-2,3-dihydro-1H-pyrrolo[3,4-b]quinolin-1-one]",0.34,0.36,55.7
"CCCN1Cc2nc3c(-c4cc(C)ccc4OC)cccc3c(N)c2C1=O [9-amino-5-(2-methoxy-5-methylphenyl)-2-propyl-2,3-dihydro-1H-pyrrolo[3,4-b]quinolin-1-one]",0.37,0.17,47.2
"COc1ccc(-c2c(F)ccc3c(N)c4c(nc23)CN(C2CC2)C4=O)c(F)c1 [9-amino-2-cyclopropyl-6-fluoro-5-(2-fluoro-4-methoxyphenyl)-2,3-dihydro-1H-pyrrolo[3,4-b]quinolin-1-one]",0.055,−0.036,7.27
"Nc1c2c(nc3c(-c4c(F)cccc4F)cccc13)CN(C1CC1)C2=O [Example 114, 9-Amino-2-cyclopropyl-5-(2,6-difluorophenyl)-2,3-dihydropyrrolo[3,4-b]quinolin-1-one]",0.13,−0.058,3.5
"CCCN1Cc2nc3c(-c4cnc(OC)cc4C)cccc3c(N)c2C1=O [Example 12, 9-Amino-5-(6-methoxy-4-methylpyridin-3-yl)-2-propyl-2,3-dihydropyrrolo[3,4-b]quinolin-1-one]",0.23,0.17,50.6
"COc1ncc(-c2cccc3c(N)c4c(nc23)CN(Cc2ccc(OC)c(OC)c2)C4=O)c(OC)n1 [9-amino-2-(3,4-dimethoxybenzyl)-5-(2,4-dimethoxypyrimidin-5-yl)-2,3-dihydro-1H-pyrrolo[3,4-b]quinolin-1-one]",0.42,0.19,13.5
"COc1ccc(C)cc1-c1cccc2c(N)c3c(nc12)CN(Cc1ccc2c(c1)OCO2)C3=O [Example 14, 9-Amino-2-benzo[1,3]dioxol-5-ylmethyl-5-(2-methoxy-5-methylphenyl)-2,3-dihydropyrrolo[3,4-b]quinolin-1-one]",0.37,0.22,15.5
"COc1cccc(-c2cccc3c(N)c4c(nc23)CN(C2CCC2)C4=O)n1 [9-Amino-2-cyclobutyl-5-(6-methoxypyridin-2-yl)-2,3-dihydropyrrolo[3,4-b]quinolin-1-one]",0.16,0.085,1.48
"COc1ccc(OC)c(-c2cccc3c(N)c4c(nc23)CN(Cc2ccc(OC)c(OC)c2)C4=O)c1 [Example 11, 9-Amino-2-(3,4-dimethoxybenzyl)-5-(2,5-dimethoxyphenyl)-2,3-dihydropyrrolo[3,4-b]quinolin-1-one]",0.19,0.15,11
"COc1ccc(Cl)cc1-c1cccc2c(N)c3c(nc12)CN(C1CCC1)C3=O [Example 49, 9-Amino-5-(5-chloro-2-methoxyphenyl)-2-cyclobutyl-2,3-dihydropyrrolo[3,4-b]quinolin-1-one]",0.58,0.12,2.53
"COc1ccc(-c2cccc3c(N)c4c(nc23)CN(C2CCCC2)C4=O)cn1 [Example 147, 9-Amino-2-cyclopentyl-5-(6-methoxypyridin-3-yl)-2,3-dihydropyrrolo[3,4-b]quinolin-1-one]",0.23,0.016,31.6
"CCN1Cc2nc3c(-c4cc(OC)ccc4F)cccc3c(N)c2C1=O [Example 72, 9-Amino-2-ethyl-5-(2-fluoro-5-methoxyphenyl)-2,3-dihydropyrrolo[3,4-b]quinolin-1-one]",0.12,0.02,13.3
"CCN1Cc2nc3c(-c4cnccc4C)cccc3c(N)c2C1=O [9-Amino-2-ethyl-5-(4-methylpyridin-3-yl)-2,3-dihydropyrrolo[3,4-b]quinolin-1-one]",0.14,0.08,23.4
"COc1ccc(-c2cccc3c(N)c4c(nc23)CN(C2CC2)C4=O)c(F)c1 [Example 115, 9-Amino-2-cyclopropyl-5-(2-fluoro-4-methoxyphenyl)-2,3-dihydropyrrolo[3,4-b]quinolin-1-one]",0.12,−0.05,14.5
"Cc1ccc(-c2c(F)ccc3c(N)c4c(nc23)CN(C2CCC2)C4=O)cn1 [9-Amino-2-cyclobutyl-6-fluoro-5-(6-methylpyridin-3-yl)-2,3-dihydropyrrolo[3,4-b]quinolin-1-one]",0.15,0,0.305
"COc1ccc(F)cc1-c1cccc2c(N)c3c(nc12)CN(C1CCC1)C3=O [9-Amino-2-cyclobutyl-5-(5-fluoro-2-methoxyphenyl)-2,3-dihydropyrrolo[3,4-b]quinolin-1-one]",0.36,0.066,8.9
"COc1cc(F)c(-c2cccc3c(N)c4c(nc23)CN(C2CC2)C4=O)c(F)c1 [9-Amino-2-cyclopropyl-5-(2,6-difluoro-4-methoxyphenyl)-2,3-dihydropyrrolo[3,4-b]quinolin-1-one]",0.088,−0.02,8.14
"CCCN1Cc2nc3c(-c4c(F)cccc4F)cccc3c(N)c2C1=O [Example 56, 9-Amino-5-(2,6-difluorophenyl)-2-propyl-2,3-dihydro-pyrrolo[3,4-b]quinolin-1-one]",0.24,0.083,4.98
"Cc1cccc(C)c1-c1cccc2c(N)c3c(nc12)CN(C1CC1)C3=O [9-amino-2-cyclopropyl-5-(2,6-dimethylphenyl)-2,3-dihydro-1H-pyrrolo[3,4-b]quinolin-1-one]",0.025,−0.07,23.9
"COc1cccc(F)c1-c1cccc2c(N)c3c(nc12)CN(C1CC(C)C1)C3=O (stereo not drawn) [9-Amino-5-(2-fluoro-6-methoxyphenyl)-2-(3-methylcyclobutyl)-2,3-dihydropyrrolo[3,4-b]quinolin-1-one]",0.36,0.11,3.75
"CCN1Cc2nc3c(-c4cccc(OC)c4F)cccc3c(N)c2C1=O [Example 33, 9-Amino-2-ethyl-5-(2-fluoro-3-methoxyphenyl)-2,3-dihydropyrrolo[3,4-b]quinolin-1-one]",0.21,0.01,9.93
"Cc1ccncc1-c1cccc2c(N)c3c(nc12)CN(C1CCC1)C3=O [9-Amino-2-cyclobutyl-5-(4-methylpyridin-3-yl)-2,3-dihydropyrrolo[3,4-b]quinolin-1-one]",0.13,0.017,1.1
